The nature of this data set: Chelating ability with Fe(II) (absorbance spectra). Particulars: for Formation constant: Fe (II) complex 1:3 (ML3); for Dissociation grade / Stoichiometry / ε approx.: Fe (II) complex; for Ability to complex Fe (II) (spectrum of mixture vs sum of individual spectra): PBS 10 mM, pH 7.4 or 8, FIGS. 2-5. The class given is physicochemical. How it is done:
FIG. 2 is an absorbance spectrum of the complex Fe(II)-Compound 4. Concentration of Fe(II) and Compound 4, 200 μM, PBS 10 mM, pH 8.
FIG. 3 is an absorbance spectrum of the complex Fe(II)-Compound 7. Concentration of Fe(II) and Compound 7 , 400 μM, PBS 10 mM, pH 8.
FIG. 4 is an absorbance spectrum of the complex Fe(II)-Compound 8. Concentration of Fe(II) and Compound 8, 200 μM, PBS 10 mM, pH 7.4.
FIG. 5 is an absorbance spectrum of the complex Fe(II)-Compound 10. Concentration of Fe(II) and Compound 10, 100 μM, PBS 10 mM, pH 7.4.
Therefore, it may be observed that the compounds of formula (I) have a high affinity to Fe (II) in comparison to the rest of metalic ions tested.

The mark [1] stands for this setting: pH 8*, expecting time 30 min (4) or 60 min (7).
Where [2] appears, read: pH 7.4, expecting time Immediate.

These results are taken from patent US8592446B2, “[1,10]-phenanthroline derivatives for the treatment of neurodegenerative or haematological diseases” (Noscira, S.A., priority 2007, dated 2013).

For the compound `CSc1cc(/C=N/O)nc2c1ccc1cccnc12` [Compound 4, 4-Methylsulfanyl-[1,10]phenanthroline-2-carbaldehyde oxime], the “Ability to complex Fe (II) (spectrum of mixture vs sum of individual spectra)” value is recorded as “able to complex the Fe (II)”. Moreover, under setting [1], the Formation constant was 8.2 ± 0.5 · 10^12, the Dissociation grade is listed as 0.147 ± 0.002, the Stoichiometry is listed as 1:3 (ML3) and the ε approx. is roughly 1800 L/mol/cm.

On to `COCCOc1cc(/C=N/O)nc2c1ccc1cccnc12` [Compound 8, 4-(2-Methoxy-ethoxy)-[1,10]phenanthroline-2-carbaldehyde oxime], for which the “Ability to complex Fe (II) (spectrum of mixture vs sum of individual spectra)” value was “able to complex the Fe (II)”. Also, under setting [2], the Formation constant is listed as 4.0 ± 1.3 · 10^17, the Dissociation grade is 0.022 ± 0.006, the Stoichiometry is on record as 1:3 (ML3) and the ε approx. was roughly 1600 L/mol/cm.

For the compound `CCN(CC)CCOc1cc(/C=N/O)nc2c1ccc1cccnc12` [Compound 10, 4-(2-Diethylamino-ethoxy)-[1,10]phenanthroline-2-carbaldehyde oxime], the “Ability to complex Fe (II) (spectrum of mixture vs sum of individual spectra)” value is “able to complex the Fe (II)”. Further, under setting [2], the Formation constant is 5.0 ± 1.0 · 10^17, the Dissociation grade was determined as 0.019 ± 0.004, the Stoichiometry is on record as 1:3 (ML3) and the ε approx. is roughly 6700 L/mol/cm.

Regarding `CC(C)Sc1cc(/C=N/O)nc2c1ccc1cccnc12` [Compound 7, 4-Isopropylsulfanyl-[1,10]phenanthroline-2-carbaldehyde oxime], the “Ability to complex Fe (II) (spectrum of mixture vs sum of individual spectra)” value is “able to complex the Fe (II)”. In addition, under setting [1], the Formation constant is reported as 2.0 ± 0.6 · 10^15, the Dissociation grade amounted to 0.023 ± 0.002, the Stoichiometry was 1:3 (ML3) and the ε approx. is roughly 280 L/mol/cm.
